What was measured:
Format in all cases: cell-based
B10F16 mouse melanocytes = assay: skin de-pigmentation assay (cell pellet colour intensity)
Procedure: The assay was standardized using B10F16 mouse melanocytes with cell numbers at a density ranging from 5×10^4 to 1×10^5 cells per ml. […] The following day the cells were pre-treated with 80 μM of PA and 10 μM+control for 2 h, 24 h, 72 h and 96 h.
Cells were then collected, counted for cell number and equal numbers were pelleted. The cell pellet was visually observed for colour intensity and quantified. The same cell pellet was then used for protein extraction and immunoblot analysis.
Test solution preparation: Stock solutions of the test compound are prepared by dissolving in DMSO. The stock solutions were filter sterilized, stored in fridge at 4° C., and were used for experiments by dilution it in the cell culture medium as required.
Mouse melanocytes (B10F16 cell line) were maintained in Dulbecco's modified Eagle's medium (DMEM; Invitrogen) supplemented with 10% foetal bovine serum (v/v; Invitrogen), 2 mM glutamine, and 1% non-essential amino-acids.
Cells were sub-cultured at 37° C., 5% CO2 and 95% humidity, were fed approximately 16 h prior to each assay and cell number was determined in duplicates using a Coulter Z2 counter (Beckman Coulter). Mouse melanocytes were sub-cultured when they reached confluence at a split ratio 1:4.

[1] = test system: fibroblasts embedded in collagen lattice; assay: free floating collagen lattice contraction assay; settings: PA pre-treated embedded fibroblasts; two independent experiments
Procedure: Collagen type I from bovine skin can be purchased from IBFB Pharma GmbH, Leipzig, Germany and is prepared according to the distributed protocols.
Cells are trypsinized, suspended in complete growth medium and carefully mixed in the collagen solution (collagen in 0.9×DMEM, 10% FCS, 0.2 mM NaOH, prepared at room temperature). Final cell concentrations might range from 0.8×10^4 to 3×10^5 cells/ml lattice. Final concentration of collagen might range from 0.3-0.6 mg/ml lattice.
After mixing, the solution is placed onto bacteriological Petri dishes and immediately put back into the incubator.
Half an hour after polymerization in the incubator, the lattices are carefully detached from the borders of the dishes using a pipette tip. It is important that the Free Floating Collagen Lattices “swim” freely in the medium.
Measurement of the diameter is performed at different time points depending on cell type and seeded cell number. Measurement can be done using a scale paper. From the diameter the area of the collagen lattice can be calculated and their size can be compared at different time points.
Production of collagen lattices: • Estimated time for 20 lattices=1 h conduction plus 1 h until medium addition. • Per assay, 20 empty 35 mm cell culture dishes were pre-warmed to 37° C. […]

human fibroblast cells [2] = assay: uni-directional scratch assay (cell migration); settings: fibroblasts pre-treated with PA 80 μM for three days; after 24 hrs
Procedure: Fibroblasts were pre-treated with PA (80 μM) for three days before performing the scratch assay.
(§1) Delicate cell monolayers at confluency are mechanically disrupted leaving an area devoid of cells. This procedure is accomplished by a “scrape” made on the cells and later advancement of the adjacent cells into the open area by cell mechanical migration, which is monitored by microscopy. Depending on the cell type, the covering process can take from many hours to less than a day, which is entirely dependent on the type of cells and extent of the scrape. The rate or the extent of migration of the cells (often termed as repopulation rate) can be calculated by a series of photomicrographs.
• Plate fibroblasts at a density 1×10^4 in 35 mm tissue culture plates and incubate for three days using novel test compounds with a control at 37° C., 5% CO2. • At confluency, displace a group of cells within the […] measure the scrape size at each time point. • Evaluate statistical significance by Student's t test. • Observe significant differences in scrape repairin PA pre-treatment on fibroblasts.

fibroblast cells = assay: Boyden chamber chemotactic migration assay; settings: PA treated vs controls; three independent assays
Procedure: 48-well Microchemotaxis Chamber Protocol
NOTE: The following directions assume that you are working with polycarbonate filters.
• 1. Adjust a variable-volume micropipette with a 1 mm tip so that the ejected liquid fills a bottom well. The well will hold 25 to 26 μL. A slight positive meniscus should form when the well is filled; this prevents air bubbles from being trapped when the filter is applied. • 2. Orient the bottom plate on a flat surface so that the NP trademark is at the upper left. Warm chemo-attractants or control reagents to about 37° C. and de-gas them by vortex or vacuum. Fill the bottom wells, completing the 48 wells in no more than 5 minutes, to prevent excessive evaporation. • 3. Cut 1 mm off the corner of a filter membrane and orient it with the cut corner at the upper left. Lift the filter by the ends with two forceps, hold it evenly over the filled wells, and lower it onto them, allowing the middle portion of the filter to make contact first. The filter position can be adjusted at this point if necessary, but note that too much movement will cause contamination between wells. • 4. Apply the silicone gasket with its cut corner at the upper left, then the top plate, aligning its NP trademark with the trademark on the bottom plate. […] With your free hand, apply and tighten the thumb nuts until finger tight.
• 1. […]

human fibroblast cells [3] = assay: bi-directional scratch assay (cell migration); settings: fibroblasts pre-treated with PA 80 μM for three days; bidirectional scratch
Procedure: Fibroblasts were pre-treated with PA (80 μM) for three days before performing the scratch assay. Migration was quantified by a micrometer scale (see FIG. 3).
as §1
• Plate fibroblasts at a density 1×10^4 in 35 mm tissue culture plates and incubate for three days using novel test compounds with a control at 37° C., 5% CO2. • At confluency, displace a group of cells within the monolayer by making one streak using a sterile pipette tip. • Photograph under phase contrast microscopy sequentially at an interval of 19 hrs post scraping. • Using an ocular micrometer measure the scrape size at each time point. • Evaluate statistical significance by Student's t test. • Observe significant differences in scrape repairin PA pre-treatment on fibroblasts.

Compound	colour change of cell pellet (inhibition of melanin production) (B10F16 mouse melanocytes; PA 80 μM, visual observation)	cell pellet colour, % lighter relative to −control (B10F16 mouse melanocytes; compound at 80 μM, after 96 hrs)	cell pellet colour, % lighter relative to +control (B10F16 mouse melanocytes; compound at 80 μM, after 96 hrs, relative to hydroquinone 10 μM)	improvement of collagen contraction [1]	enhancement of migration (tissue repair) in vitro, uni-directional cell migration (human fibroblast cells [2])	enhancement of chemotactic migration towards chemo-attractants (factor) (fibroblast cells)	improvement of tissue migration over the untreated (human fibroblast cells [3])	cell pellet colour, % lighter relative to −control (B10F16 mouse melanocytes; Hydroquinone at 10 μM, after 96 hrs)
NC(=O)CCc1ccc(O)cc1 [PA, 3-(4-hydroxyphenyl)propanoic acid amide]	distinct color change from dark to pale	50% lighter (relative to − control)	39% lighter (relative to +control)	85%	more than 60%	2.7	about 37%	–
Oc1ccc(O)cc1 [+C, Hydroquinone, reference compound]	–	–	–	–	–	–	–	78% lighter (78% relative to −control)
